Tests used:
[1] = tested on: ARE gene family (AKR1B10, AKR1C1, AKR1C2, CYP1B1, FTH1P, FTL, G6PD, GCLM, NQO2, SLC7A11, TXNRD1, UGT1A1, UGT1A9, YWHAZ, CD36, CYP1A1, GCLC, HMOX1, NQO1, PSME2 …)
EPISKIN model [2] = assay: Sensitizing power: sensitizing potential retested at successive dilutions in the EPISKIN model
EPISKIN model [3] = tested on: EPISKIN model
[4] = tested on: genes specific for sensitization (BRAK, CTSS, DAPK2, FABP4, HSP27, IL18, HSP90, IL1R2, TPSAB1, CXCR1, DEFB1, DHFR, EHF, IVL, KRT4, MELANA, NGAL, PDZK1IP1, PI3 …); assay: Expression of the other (non-ARE) sensitization-specific genes in EPISKIN reconstructed skin (quantitative RT-PCR); type: cell-based, human

CC(O)C(=O)O (stereo not drawn) [Ac Lactique] was tested, and the “AHR NUMBER OF GENES grade” value [1] was 0 (key: If the expression is greater than 1.3 compared to the control, a grade of 11s given; if this expression is lower, the grade is 0), the AHR expression [1] was 0.8 and the “AKR1B10 NUMBER OF GENES grade” value [1] was 0 (key: If the expression is greater than 1.3 compared to the control, a grade of 11s given; if this expression is lower, the grade is 0). The “AKR1C1 NUMBER OF GENES grade” value [1] was 0 (key: If the expression is greater than 1.3 compared to the control, a grade of 11s given; if this expression is lower, the grade is 0), the “AKR1C2 NUMBER OF GENES grade” value [1] was 0 (key: If the expression is greater than 1.3 compared to the control, a grade of 11s given; if this expression is lower, the grade is 0) and the “ARE >1.3 (number of genes)” value [1] was 0. The “CYP1B1 NUMBER OF GENES grade” value [1] was 0 (key: If the expression is greater than 1.3 compared to the control, a grade of 11s given; if this expression is lower, the grade is 0), the “FTH1P NUMBER OF GENES grade” value [1] was 0 (key: If the expression is greater than 1.3 compared to the control, a grade of 11s given; if this expression is lower, the grade is 0) and the “FTL NUMBER OF GENES grade” value [1] was 0 (key: If the expression is greater than 1.3 compared to the control, a grade of 11s given; if this expression is lower, the grade is 0). For the same compound, the “GCLC NUMBER OF GENES grade” value [1] was 0 (key: If the expression is greater than 1.3 compared to the control, a grade of 11s given; if this expression is lower, the grade is 0), the “GCLM NUMBER OF GENES grade” value [1] was 0 (key: If the expression is greater than 1.3 compared to the control, a grade of 11s given; if this expression is lower, the grade is 0) and the GCLM expression [1] was 1.1. The “HMOX1 NUMBER OF GENES grade” value [1] was 0 (key: If the expression is greater than 1.3 compared to the control, a grade of 11s given; if this expression is lower, the grade is 0), the “NQO1 NUMBER OF GENES grade” value [1] was 0 (key: If the expression is greater than 1.3 compared to the control, a grade of 11s given; if this expression is lower, the grade is 0) and the “NQO2 NUMBER OF GENES grade” value [1] was 0 (key: If the expression is greater than 1.3 compared to the control, a grade of 11s given; if this expression is lower, the grade is 0). For the same compound, the NQO2 expression [1] was 1.2, the “SLC7A11 NUMBER OF GENES grade” value [1] was 0 (key: If the expression is greater than 1.3 compared to the control, a grade of 11s given; if this expression is lower, the grade is 0) and the SLC7A11 expression [1] was 1.0. For the same compound, the “TOTAL ARE (number of genes)” value [1] was 0, the “TXNRD1 NUMBER OF GENES grade” value [1] was 0 (key: If the expression is greater than 1.3 compared to the control, a grade of 11s given; if this expression is lower, the grade is 0) and the “UGT1A1 NUMBER OF GENES grade” value [1] was 0 (key: If the expression is greater than 1.3 compared to the control, a grade of 11s given; if this expression is lower, the grade is 0). For the same compound, the UGT1A1 expression [1] was 1.3, the “UGT1A9 NUMBER OF GENES grade” value [1] was 0 (key: If the expression is greater than 1.3 compared to the control, a grade of 11s given; if this expression is lower, the grade is 0) and the UGT1A9 expression [1] was 0.8. For the same compound, the “NUMBER OF GENES overexpressed, sum column 8” value (EPISKIN model [2]) was 0, the “sensitizing potential (conclusion)” value (EPISKIN model [3]) was “Non-sensitizing” and the “SENS >1.3 (number of genes)” value [4] was 1.

Reference: US9255295B2, “Method for evaluating the sensitizing potential of a test compound” (IMMUNOSEARCH, priority 2010, dated 2016)
